Measurements from US9067931B2, “2-heteroaryl carboxamides” (BAYER INTELLECTUAL PROPERTY GMBH, priority 2002, dated 2015).
Where a name gives a salt, the structure may show the parent alone.

Target: α7 nAChR (Rattus norvegicus (Rat), UniProt Q05941)
Assay: Inhibition of [3H]-methyllycaconitine binding to rat brain membranes
Conditions: [3H]-methyllycaconitine displacement, rat brain membranes (hippocampus or whole brain); Ki=IC50/(1+L/KD)
Procedure: Determination of the Affinity of Test Substaces for α7 nAChR by Inhibition of [^3H]-Methyllycaconitine Binding to Rat Brain Membranes
The [^3H]-methyllycaconitine binding assay is a modification of the method described by Davies et al. in Neuropharmacol. 1999, 38, 679-690.
Rat brain tissue (hippocampus or whole brain) is homogenized in homogenization buffer (10% w/v, 0.32 M sucrose, 1 mM EDTA, 0.1 mM phenylmethylsulphonyl fluoride (PMSF), 0.01% (w/v) NaN3, pH 7.4, 4° C.) at 600 rpm in a glass homogenizer. The homogenate is centrifuged (1000×g, 4° C., 10 min) and the supernatant is removed. The pellet is resuspended (20% w/v) and the suspension is centrifuged (1000×g, 4° C., 10 min). The two supernatants are combined and centrifuged (15 000×g, 4° C., 30 min). The pellet obtained in this way is referred to as the P2 fraction.
The P2 pellet is suspended in binding buffer (50 mM Tris-HCl, 1 mM MgCl2, 120 mM NaCl, 5 mM KCl, 2 mM CaCl2, pH 7.4), and the suspension is centrifuged (15 000×g, 4° C., 30 min), twice.
The residue is resuspended in binding buffer and incubated in a volume of 250 μl (amount of membrane protein 0.1-0.5 mg) in the presence of 1-5 nM [^3H]-methyllycaconitine 0.1% (w/v) BSA (bovine serum albumin) and various concentrations of the test substance at 21° C. for 2.5 h. […] in the presence of 1 μM α-bungarotoxin or 100 μM nicotine or 10 μM MLA (methyllycaconitine).
The incubation is stopped by adding 4 ml PBS (20 mM Na2HPO4, 5 mM KH2PO4, 150 mM NaCl, pH 7.4, 4° C.) and filtering through type A/E glass fibre filters (Gelman Sciences) which have previously been placed in 0.3% (v/v) polyethyleneimine (PEI) for 3 h. The filters are washed twice with 4 ml of PBS (4° C.), and the bound radioactivity is determined by scintillation measurement. All the assays are carried out in triplicate. The dissociation constant K1 of the test substance was determined from the IC50 of the compounds (concentration of the test substance at which 50% of the ligand bound to the receptor is displaced), the dissociation constant KD and the concentration L of [^3H]-methyllycaconitine using the equation Ki=IC50/(1+L/KD).

Chain of α7 nAChR (Q05941 23-502): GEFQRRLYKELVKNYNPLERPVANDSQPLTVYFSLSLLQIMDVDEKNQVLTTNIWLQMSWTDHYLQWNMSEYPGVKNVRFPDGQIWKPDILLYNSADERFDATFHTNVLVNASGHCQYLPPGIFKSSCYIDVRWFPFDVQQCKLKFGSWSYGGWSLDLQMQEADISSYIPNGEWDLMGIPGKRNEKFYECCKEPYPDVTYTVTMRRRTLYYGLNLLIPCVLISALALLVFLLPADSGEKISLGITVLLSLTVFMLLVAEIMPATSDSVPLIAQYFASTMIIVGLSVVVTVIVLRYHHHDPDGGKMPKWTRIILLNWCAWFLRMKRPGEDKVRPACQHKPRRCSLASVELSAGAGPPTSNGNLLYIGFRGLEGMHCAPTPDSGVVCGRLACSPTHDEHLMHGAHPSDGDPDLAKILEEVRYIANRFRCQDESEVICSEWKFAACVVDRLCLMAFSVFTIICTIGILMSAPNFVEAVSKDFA

Row | Structure (SMILES) | Ki [nM]
1 | COc1cccc(-c2cccc3cc(C(=O)N[C@H]4CN5CCC4CC5)sc23)c1 [Example 17, N-[(3R)-1-Azabicyclo[2.2.2]oct-3-yl]-7-(3-methoxyphenyl)-1-benzothiophene-2-carboxamide hydrochloride] | 17
2 | CNC(=O)NCc1ccccc1-c1cccc2cc(C(=O)N[C@H]3CN4CCC3CC4)oc12 [Example 175, N-[(3R)-1-Azabicyclo[2.2.2]oct-3-yl]-7-[2-({[(methylamino)carbonyl]amino}-methyl)phenyl]-1-benzofuran-2-carboxamide hydrochloride] | 8.3
3 | O=C(N[C@H]1CN2CCC1CC2)c1cc2cccc(-c3ccccc3CO)c2o1 [Example 150, N-[(3R)-1-Azabicyclo[2.2.2]oct-3-yl]-7-[2-(hydroxymethyl)phenyl]-1-benzofuran-2-carboxamide hydrochloride] | 35
4 | COc1ccc(OC)c(-c2cccc3cc(C(=O)N[C@H]4CN5CCC4CC5)oc23)c1 [Example 151, N-[(3R)-1-Azabicyclo[2.2.2]oct-3-yl]-7-(2,5-dimethoxyphenyl)-1-benzofuran-2-carboxamide hydrochloride] | 88
5 | NCc1ccccc1-c1cccc2cc(C(=O)N[C@H]3CN4CCC3CC4)sc12 [Example 73, 7-[2-(Aminomethyl)phenyl]-N-[(3R)-1-azabicyclo[2.2.2]oct-3-yl]-1-benzothiophene-2-carboxamide dihydrochloride] | < 1
6 | CCNC(=O)Nc1cccc(-c2cccc3cc(C(=O)N[C@H]4CN5CCC4CC5)oc23)c1 [Example 108, N-[(3R)-1-Azabicyclo[2.2.2]oct-3-yl]-7-(3-{[(ethylamino)carbonyl]amino}phenyl)-1-benzofuran-2-carboxamide hydrochloride] | 17
7 | O=C(N[C@H]1CN2CCC1CC2)c1cc2cccc(-c3ccc(CO)cc3)c2s1 [Example 20, N-[(3R)-1-Azabicyclo[2.2.2]oct-3-yl]-7-[4-(hydroxymethyl)phenyl]-1-benzothiophene-2-carboxamide hydrochloride] | 1.6
8 | O=C(N[C@H]1CN2CCC1CC2)c1cc2ccc(-c3ccc(CO)cc3)cc2o1 [Example 3, N-[(3R)-1-Azabicyclo[2.2.2]oct-3-yl]-6-[4-(hydroxymethyl)phenyl]-1-benzofuran-2-carboxamide] | 60
9 | O=C(N[C@H]1CN2CCC1CC2)c1cc2ccc(-c3ccc(N4CCOCC4)cc3)cc2o1 [Example 4, N-[(3R)-1-Azabicyclo[2.2.2]oct-3-yl]-6-[4-(4-morpholinyl)phenyl]-1-benzofuran-2-carboxamide] | 24
10 | O=C(N[C@H]1CN2CCC1CC2)c1cc2cccc(-c3ccc(N4CCOCC4=O)cc3)c2o1 [Example 90, N-[(3R)-1-Azabicyclo[2.2.2]oct-3-yl]-7-[4-(3-oxo-4-morpholinyl)phenyl]-1-benzofuran-2-carboxamide hydrochloride] | 14
11 | COc1ccccc1-c1cccc2cc(C(=O)N[C@H]3CN4CCC3CC4)oc12 [Example 130, N-[(3R)-1-Azabicyclo[2.2.2]oct-3-yl]-7-[2-(methoxy)phenyl]-1-benzofuran-2-carboxamide] | 26
12 | O=C(N[C@H]1CN2CCC1CC2)c1cc2cccc(-c3ccccc3O)c2o1 [Example 186, N-[(3R)-1-Azabicyclo[2.2.2]oct-3-yl]-7-(2-hydroxyphenyl)-1-benzofuran-2-carboxamide] | 120
13 | O=C(N[C@H]1CN2CCC1CC2)c1cc2cccc(-c3ccc(N4CCOCC4)cc3)c2s1 [Example 19, N-[(3R)-1-Azabicyclo[2.2.2]oct-3-yl]-7-[4-(4-morpholinyl)phenyl]-1-benzothiophene-2-carboxamide hydrochloride] | 20
14 | O=C(O)c1cccc(-c2cccc3cc(C(=O)N[C@H]4CN5CCC4CC5)sc23)c1 [Example 75, 3-(2-{[(3R)-1-Azabicyclo[2.2.2]oct-3-ylamino]carbonyl}-1-benzothien-7-yl)-benzoic acid hydrochloride] | < 0.1
15 | O=C(N[C@H]1CN2CCC1CC2)c1cc2cccc(-c3cccc(NC(=O)C4CC4)c3)c2o1 [Example 116, N-[(3R)-1-Azabicyclo[2.2.2]oct-3-yl]-7-{3-[(cyclopropylcarbonyl)amino]phenyl}-1-benzofuran-2-carboxamide hydrochloride] | 17
16 | O=C(O)c1cccc(-c2cccc3cc(C(=O)N[C@H]4CN5CCC4CC5)oc23)c1 [Example 149, 3-(2-{[(3R)-1-Azabicyclo[2.2.2]oct-3-ylamino]carbonyl}-1-benzofuran-7-yl)-benzoic acid hydrochloride] | 97

Same assay, conditions: [3H]-methyllycaconitine displacement, rat brain membranes (hippocampus or whole brain); Ki=IC50/(1+L/KD); hydrochloride

Row | Structure (SMILES) | Ki [nM]
17 | COc1ccccc1-c1cccc2cc(C(=O)N[C@H]3CN4CCC3CC4)oc12 [Example 102, N-[(3R)-1-Azabicyclo[2.2.2]oct-3-yl]-7-[2-(methoxy)phenyl]-1-benzofuran-2-carboxamide hydrochloride] | 62
